From US7972815B2, “Method of producing sugar chain using human G4 polypeptide” (Kyowa Hakko Kirin Co., Ltd., priority 1999, dated 2011)

Target: T1, β1,3-N-acetylglucosaminyl transferase (G3) (Homo sapiens, UniProt Q9NY97)
T1 construct: made in house; host or cells: Sf21 insect cells infected with recombinant baculovirus from pVL1393-F2G3
T1 sequence (Q9NY97 31-397): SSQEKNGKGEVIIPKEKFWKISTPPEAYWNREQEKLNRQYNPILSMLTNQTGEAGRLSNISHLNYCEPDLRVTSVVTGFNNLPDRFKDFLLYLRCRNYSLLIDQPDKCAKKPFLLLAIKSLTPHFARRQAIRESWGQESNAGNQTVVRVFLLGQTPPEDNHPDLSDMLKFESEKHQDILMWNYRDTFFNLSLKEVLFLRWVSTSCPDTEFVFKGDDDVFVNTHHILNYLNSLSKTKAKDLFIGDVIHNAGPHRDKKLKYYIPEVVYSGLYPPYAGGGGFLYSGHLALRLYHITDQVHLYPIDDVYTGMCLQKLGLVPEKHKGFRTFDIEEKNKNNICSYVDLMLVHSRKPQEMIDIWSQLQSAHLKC
Assay: Substrate specificity of G3 with pyridylaminated oligosaccharides
Format: biochemical
Details: 2 hours; for Relative activity (%): pyridylaminated substrate, 37° C., activity on LNnT defined as 100%
Protocol: The method shown in Example 8 was used as the activity measuring method. Specifically, after the reaction at 37° C. for 14.5 hours in 30 μl of an assay solution [200 mmol/l of MOPS (pH 7.5), 20 mmol/l of UDP-GlcNAc (SIGMA), 20 mmol/l of MnCl2, 50 μmol/l of pyridylaminated sugar chain substrate and 15 μl of the above eluate], products were detected by HPLC. As substrates, LNnT, lacto-N-tetraose (Galβ1-3GlcNAcβ1-3Galβ1-4Glc, hereinafter referred to as “LNT”), lacto-N-fucopentaose II (Galβ1-3(Fucα1-4)GlcNAcβ1-3Galβ1-4Glc, hereinafter referred to as “LNFP-II”), lacto-N-fucopentaose III (Galβ1-4(Fucα1-3)GlcNAcβ1-3Galβ1-4Glc, hereinafter referred to as “LNFP-III”), lacto-N-fucopentaose V (Galβ1-3GlcNAcβ1-3Galβ1-4(Fucα1-3)Glc, hereinafter referred to as “LNFP-V”) and lacto-N-difucohexaose II (Galβ1-3(Fucα1-4)GlcNAcβ1-3Galβ1-4(Fucα1-3)Glc, hereinafter referred to as “LNDFH-II”) (all manufactured by Oxford Glycosystems) were used after fluorescently labeling them with aminopyridine. Fluorescence labeling of these substrates were carried out in accordance with the usual method [Agric. Biol. Chem., 54, 2169 (1990)].
For each substrate, the reaction was carried using the assay solution with or without UDP-GlcNAc (sugar donor), and then HPLC was carried out and peaks appeared only in the assay solution containing UDP-GlcNAc were defined as products.
The assay solution after completion of the reaction was treated at 100° C. for 5 minutes and then centrifuged at 10,000×g for 5 minutes, and a portion (5 μl) of the thus obtained supernatant was applied to HPLC.
The HPLC was carried out by using TSK-gel ODS-80Ts column (4.6×300 mm; Tosoh); 0.02 mol/l ammonium acetate buffer (pH 4.0) was used as the eluate at an elution temperature of 50° C. and at a flow rate of 0.5 ml/min.
Products were detected by using a fluorescence spectrum photometer FP-920 (JASCO Corporation) (excitation wavelength 320 nm, radiation wavelength 400 nm).
Substrate specificity of a β1,3-N-acetylglucosaminyl transferase (G3) was examined using the FLAG peptide-fused G3 polypeptide purified in Example 14.
Substrate specificity of the FLAG peptide-fused G3 polypeptide was examined by the method shown in Example 11(1). The reaction was carried out at 37° C. for 2 hours.

Row | Structure (SMILES) | conversion efficiency of the substrate into the product (pyridylaminated LNnT as substrate) [%] | Relative activity (%)
1 | CC(=O)N[C@H]1[C@H](O[C@H]2[C@@H](O)[C@@H](CO)O[C@@H](O[C@H]3[C@H](O)[C@@H](O)C(O)O[C@@H]3CO)[C@@H]2O)O[C@H](CO)[C@@H](O[C@@H]2O[C@H](CO)[C@H](O)[C@H](O)[C@H]2O)[C@@H]1O (mixture of isomers) [LNnT, lacto-N-neotetraose] | 82.5 | 100
2 | CC(=O)N[C@H]1[C@H](O[C@H]2[C@@H](O)[C@@H](CO)O[C@@H](O[C@H]3[C@H](O)[C@@H](O)C(O)O[C@@H]3CO)[C@@H]2O)O[C@H](CO)[C@@H](O)[C@@H]1O[C@@H]1O[C@H](CO)[C@H](O)[C@H](O)[C@H]1O (stereo partly drawn) [LNT, lacto-N-tetraose] | – | 3.7
